The values below come from ChEMBL document CHEMBL4011612, “4-Anilino-pyrimidine, novel aldosterone synthase (CYP11B2) inhibitors bearing pyrimidine structures” (Bioorg Med Chem Lett, 2017).

pIC50: −log10 of the molar value. The source made the active and inactive calls. The rule behind the calls is not given here.

Test [1] addresses T1, Cytochrome P450 11B2, mitochondrial (Homo sapiens, UniProt P19099).
T1 sequence (P19099 whole entry): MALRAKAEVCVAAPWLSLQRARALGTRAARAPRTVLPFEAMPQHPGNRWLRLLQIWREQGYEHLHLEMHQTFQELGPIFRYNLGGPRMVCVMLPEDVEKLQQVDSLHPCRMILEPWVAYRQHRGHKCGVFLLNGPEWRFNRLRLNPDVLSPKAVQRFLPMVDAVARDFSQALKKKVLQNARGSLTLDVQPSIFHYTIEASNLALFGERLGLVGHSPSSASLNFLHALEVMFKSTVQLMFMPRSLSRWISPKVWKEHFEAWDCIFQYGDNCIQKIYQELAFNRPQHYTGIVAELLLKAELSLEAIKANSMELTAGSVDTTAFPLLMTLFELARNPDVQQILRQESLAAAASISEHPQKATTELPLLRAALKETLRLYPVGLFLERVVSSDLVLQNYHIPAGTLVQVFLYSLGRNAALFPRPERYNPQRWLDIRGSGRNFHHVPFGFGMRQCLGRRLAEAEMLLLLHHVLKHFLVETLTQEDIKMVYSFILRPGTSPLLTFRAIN
Description: Inhibition of human CYP11B2 expressed in HEK293A cells using deoxycorticosterone as substrate pretreated for 1 hr followed by substrate addition measured after 1 hr by HTRF assay

In test [2] the target is T2, Cytochrome P450 11B2, mitochondrial (Mus musculus, UniProt P15539).
T2 sequence (P15539 whole entry): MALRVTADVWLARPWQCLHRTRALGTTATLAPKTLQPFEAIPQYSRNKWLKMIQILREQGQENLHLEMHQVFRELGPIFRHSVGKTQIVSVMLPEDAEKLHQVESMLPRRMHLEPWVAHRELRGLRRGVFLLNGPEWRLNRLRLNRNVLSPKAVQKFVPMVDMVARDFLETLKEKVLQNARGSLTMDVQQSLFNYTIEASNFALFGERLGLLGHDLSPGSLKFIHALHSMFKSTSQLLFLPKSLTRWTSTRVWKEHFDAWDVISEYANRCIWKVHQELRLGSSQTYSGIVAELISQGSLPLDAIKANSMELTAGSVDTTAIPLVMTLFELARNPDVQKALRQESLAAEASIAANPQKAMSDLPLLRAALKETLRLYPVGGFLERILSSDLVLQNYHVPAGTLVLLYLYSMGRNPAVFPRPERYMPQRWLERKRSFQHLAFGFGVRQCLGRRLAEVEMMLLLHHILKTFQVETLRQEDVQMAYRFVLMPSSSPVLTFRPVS
Description: Inhibition of mouse CYP11B2 expressed in HEK293 cells using deoxycorticosterone as substrate pretreated for 1 hr followed by substrate addition after 2 hrs by HTRF assay

In test [3] the target is T3, Cytochrome P450 11B1, mitochondrial (Homo sapiens, UniProt P15538).
T3 sequence (P15538 whole entry): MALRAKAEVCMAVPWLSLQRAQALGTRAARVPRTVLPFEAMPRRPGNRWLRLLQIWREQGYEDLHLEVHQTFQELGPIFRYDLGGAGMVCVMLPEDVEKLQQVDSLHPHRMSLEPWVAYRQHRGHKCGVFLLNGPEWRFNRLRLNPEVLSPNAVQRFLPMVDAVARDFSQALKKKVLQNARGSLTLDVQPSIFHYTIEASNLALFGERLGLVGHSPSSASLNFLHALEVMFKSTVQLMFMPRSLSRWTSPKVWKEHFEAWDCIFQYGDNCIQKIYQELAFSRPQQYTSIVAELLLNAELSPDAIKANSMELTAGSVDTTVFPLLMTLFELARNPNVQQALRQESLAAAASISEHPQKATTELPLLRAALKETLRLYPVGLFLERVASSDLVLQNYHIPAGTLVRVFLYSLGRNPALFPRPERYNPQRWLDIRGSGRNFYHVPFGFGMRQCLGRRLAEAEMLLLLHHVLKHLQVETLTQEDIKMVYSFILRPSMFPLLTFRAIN
The experiment in a line: Inhibition of human CYP11B1 expressed in HEK293A cells. The format is ADME, cell-based, HEK293.

Test [4] addresses T4, Cytochrome P450 11B2, mitochondrial (Rattus norvegicus, UniProt P30099).
T4 sequence (P30099 whole entry): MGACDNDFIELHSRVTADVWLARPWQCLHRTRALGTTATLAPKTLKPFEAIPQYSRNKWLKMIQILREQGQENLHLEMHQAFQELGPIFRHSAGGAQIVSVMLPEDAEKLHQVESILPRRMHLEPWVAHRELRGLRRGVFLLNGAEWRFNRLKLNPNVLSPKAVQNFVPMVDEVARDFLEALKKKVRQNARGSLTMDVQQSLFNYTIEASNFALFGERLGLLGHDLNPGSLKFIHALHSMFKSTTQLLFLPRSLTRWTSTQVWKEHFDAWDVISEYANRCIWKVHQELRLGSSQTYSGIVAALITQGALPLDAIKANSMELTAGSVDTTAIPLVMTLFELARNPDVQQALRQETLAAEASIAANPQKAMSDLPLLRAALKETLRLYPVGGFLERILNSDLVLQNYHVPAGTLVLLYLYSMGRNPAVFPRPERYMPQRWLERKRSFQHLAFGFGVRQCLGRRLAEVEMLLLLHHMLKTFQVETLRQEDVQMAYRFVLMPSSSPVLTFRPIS
The experiment in a line: Inhibition of rat CYP11B2.

Test [5] is described as follows: Inhibition of monkey CYP11B2. Also on record: species or system Macaca mulatta.
Another test has as its system Cynomolgus monkey. The experiment in a line: Decrease in plasma aldosterone level in furosemide-induced cynomolgus monkey at 3 mg/kg, po administered as single dose by radioimmunoassay. The format is functional, organism-based. The settings on record: Macaca fascicularis.

As for `CS(=O)(=O)N1CCC(C(O)c2cncnc2Nc2ccc(F)cc2)C1` (mixture of isomers), the values for the pIC50 in test [1] and in test [2] were 6.84 and 5.83, respectively.
`CC(C)C(O)(c1cncnc1Nc1ccc(F)cc1)C1CCN(S(C)(=O)=O)CC1` (racemic): the pIC50 (usually −log10 of the IC50, conventionally taken in molar units) was 8.30 in test [1], 7.89 in test [3] and 7.68 in test [2].
For `CS(=O)(=O)N1CCC(C(O)(c2cncnc2Nc2ccc(F)cc2)C(F)(F)F)CC1` (single isomer, unassigned; isomer 1) the same measures were 9.14, 8.96 and 9.14.
In the case of `CS(=O)(=O)N1CCC(C(O)c2cncnc2Nc2cccc(F)c2)CC1` (racemic), the negative-log IC50 (pIC50) in test [1] was 8.30; in test [3], 7.89; in test [2], 5.96.
On to `CS(=O)(=O)N1CCC(C(O)(c2cncnc2Nc2ccc(F)cc2)C(F)(F)F)CC1` (single isomer, unassigned; isomer 2), for which the negative-log IC50 (pIC50) in test [1] was under 7.00; in test [3], under 6.52; in test [2] it was under 7.00.
As to `CCCCC(O)(c1cncnc1Nc1ccc(F)cc1)C1CCN(S(C)(=O)=O)CC1` (racemic), the pIC50 was 7.32 in test [1], 6.91 in test [3] and 6.77 in test [2].
For the molecule `CS(=O)(=O)N1CCC(C(O)c2cncnc2Nc2ccc(F)cc2)CC1` (racemic), the pIC50 in test [4] was 6.52; in test [1], 8.51 to 8.52; in test [5], 8.57; in test [3] it was 8.00; in test [2], 6.52.
For `OC(c1ccccc1)c1cncnc1Nc1ccc(F)cc1` (racemic), the pIC50 is 7.52 in test [1], 7.03 in test [3] and 6.36 in test [2].
Turning to `CS(=O)(=O)N1CCC(C(=O)c2cncnc2Nc2ccc(F)cc2)CC1`, the negative-log IC50 (pIC50) in test [1] was 6.96; in test [2], 5.29.
The matching figures for `COc1ccc(Nc2ncncc2C(O)C2CCN(S(C)(=O)=O)CC2)cc1` (racemic): 7.85 and under 5.00.
`CS(=O)(=O)N1CCC(C(O)(c2cncnc2Nc2ccc(F)cc2)C(F)(F)F)CC1` (racemic): in the test on Cynomolgus monkey, the result was Active.
On to `CS(=O)(=O)N1CCC(C(O)c2cncnc2Nc2ccc(C(F)(F)F)cc2)CC1` (racemic), for which the pIC50 is 8.52 in test [1], 7.80 in test [3] and 6.10 in test [2].
Take `CS(=O)(=O)N1CCC(C(O)c2cncnc2Sc2ccc(F)cc2)CC1` (racemic): the pIC50 was 9.40 in test [1], 9.22 in test [3] and 6.59 in test [2].
For `CCCC(O)c1cncnc1Nc1ccc(F)cc1` (racemic) the same measures were 7.12, 6.74 and 6.04.
For `CS(=O)(=O)N1CCC(C(O)c2cncnc2Nc2ccccc2)CC1` (racemic) the same measures were 7.82, 7.38 and 5.76.
The matching figures for `Cc1ccc(Nc2ncncc2C(O)C2CCN(S(C)(=O)=O)CC2)cc1` (racemic): 8.10, 7.72 and 5.72.
For the molecule `CS(=O)(=O)N1CCC(CC(O)c2cncnc2Nc2ccc(F)cc2)CC1` (racemic), the figures for the negative logarithm of the IC50 (pIC50) in test [1] and in test [2] were 6.72 and 5.50, respectively.
The matching figures for `OC(c1cncnc1Nc1ccc(F)cc1)C1CCNCC1` (racemic): 6.52 and 5.88.
Take `CC(O)(c1cncnc1Nc1ccc(F)cc1)C1CCN(S(C)(=O)=O)CC1` (racemic): the negative logarithm of the IC50 (pIC50) in test [1] was 8.70; in test [3], 8.22; in test [2] it was 6.99.
The matching figures for `CS(=O)(=O)N1CCC(C(O)c2cncnc2Nc2ccc(C#N)cc2)CC1` (racemic): 8.70, 7.96 and 5.87.
For the molecule `CS(=O)(=O)N1CCC(O)(c2cncnc2Nc2ccc(F)cc2)CC1`, the negative-log IC50 (pIC50) in test [1] was 6.52; in test [2], 5.86.
Molecule `CS(=O)(=O)N1CCC(C(O)c2cncnc2Cc2ccccc2)CC1` (racemic) gave a pIC50 in test [1] of 7.08.
As for `CS(=O)(=O)N1CCC(C(O)c2cncnc2Nc2cccc3ccccc23)CC1` (racemic), the results for the negative-log IC50 (pIC50) in test [1], in test [3] and in test [2] were 8.10, 6.96 and 5.56, respectively.
